Read-outs that look alike come from different tables or passages of the source. Values belong to the compound of their own block, whether it stands above or below them. Where a SMILES comes first, the peptide text is derived from it. [ ]: non-standard residue; d: D form. 2Nal = N[C@@H](Cc1ccc2ccccc2c1)C(=O)O; dNle = CCCC[C@@H](N)C(=O)O; βAla = NCCC(=O)O
Legend:
SSP-25 cells = assay: xCELLigence cell death assay in SSP-25 cells (cellular assay for RAD51 inhibition); type: cell-based; conditions: concentration gradient added at 20 hour mark, only values with R^>0.85 shown
fresh human RBCs = type: cell-based; conditions: red cells of human, 1 h, 250
Method in brief: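 Washed RBCs from O+ donors (K2EDTA), diluted to 2% in PBS, incubated with compounds at various concentrations for 1 hr at 37 C. Supernatant absorbance read at 450 or 405 nm after centrifugation; % hemolysis relative to 1% Triton X-100.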

A549 cells [1] = assay: A549 cell growth/death, xCELLigence and microscopy; type: cell-based; conditions: xCELLigence, concentration gradient
Experimental: To assess the growth inhibitory properties of compounds disclosed herein, 10 μM of Compound 1 was tested against a PBS mock treatment for growth of A549 cells using microscopy at the indicated timepoints shown in the top right corner of each panel of FIG. 2. […] First, 5,000 A549 cells were plated, and adherence and growth was measured for 20 hours using live measurements of current impedance through the plate using the xCELLigence™ instrument. At the […] mark, a concentration gradient of Compound 1 or a PBS control was added to the A549 cells, which were cultured in 100 μL DMEM media with 10% FBS.

primary fibroblasts = assay: Selective killing, Cytation imaging of primary fibroblasts; type: cell-based; conditions: 10 μM, approx. 5 minute time points
Experimental: To assess the specificity of compounds disclosed herein in targeting cancers with overexpression of RAD51, Compound 1 was tested against primary fibroblasts and SSP25 cells (cholangiocarcinoma cell line) (FIG. 5). First, 5,000 cells were incubated in 96-well culture plates overnight. Cells were grown in DMEM or RPMI, respectively, with 10% FBS, and […] was added to a concentration of 10 μM and imaging commenced using a Cytation™ instrument using approximately 5 minute time points. DAPI was used to visualize the nuclei and mitotracker-red was used to observe mitochondria. […] Furthermore, cell morphology was affected within 5 minutes of imaging, and the macrobubble phenotype was stable for further periods of time.

SSP25 cells = assay: xCELLigence cell death assay with intracellular calcium chelators; type: cell-based; conditions: relative to compound alone
Experimental: To investigate the hypothesis that peptide treatment of cells causes cell death via increases in intracellular free calcium levels, Compound 1 alone and in combination with two different intracellular calcium chelators (1,2-Bis(2-aminophenoxy)ethane-N,N,N′,N′-tetraacetic acid tetrakis(acetoxymethyl ester) aka “BAPTA-AM”, and ammoniated ruthenium oxychloride aka “ruthenium red”) was tested in an xCELLigence™ cell death assay as in Example 1. The intracellular calcium chelators alone were also evaluated on the cells.

A549 cells [2] = assay: Intracellular calcium imaging with Fluo-2-AM; type: cell-based; conditions: 30 μM compound, pre-incubation with 2.5 μM Fluo-2-AM
Source text: Timestamps for the duration of the experiment are indicated in each panel.

[3] = Mouse pharmacokinetics, IV and IP dosing; type: in vivo, mice
Experimental: The pharmocokinetic parameters in mice by both intravenous (IV) and intraperitoneal (IP) dosing, as well as the serum and microsome stability for each of compound 22, 23, 24, and 25 was determined. Bioanalytical methods were developed for each compound using an LC-MS/MS method with LLOQ>100 ng/ml.
For in-vivo PK work, at least 3 mice were used per timepoint. For each compound, the animals were injected either IV or IP with the compound. IV injections used 1 mg/kg, and IP injections were at 15 mg/kg. Blood was collected at the indicated timepoints and analyzed according to the bioanalytical method developed.

A549 xenograft = A549 xenograft in athymic nude mice, compound 22; type: in vivo; conditions: 15 mpk IP every other day
Experimental: The anti-cancer activity of compound 22 was assessed in an A549 xenograft model in a method similar to Example 4. Briefly, A549 cells were implanted into athymic nude female mice. Tumors were allowed to grow to 100 mm^3 before initiation of dosing. Mice were randomly distributed into dosing groups with at least 3 animals per group. Mice were dosed using 15 mpk TP injections every other day.
Tumor volumes and mouse weights were recorded at the indicated timepoints. Terminal tumors were excised and weighed (N=3 for each group).

in vitro [4] = conditions: mouse, serum
Experimental: Serum stability data was obtained using the appropriate animal serum, each incubated with the compound for up to two hours at 37 C.

in vitro [5] = conditions: human, microsomes
Experimental: (§1) For HLM and MLM stability studies, each compound was incubated with the liver microsome mixture for up to an hour at 37 C in the presence of NADPH.
(§2) After the incubations, the reactions were stopped and the compounds were analyzed according to the method developed for each.

in vitro [6] = conditions: mouse, microsomes
Experimental: as §1, §2

SMILES: CSCC[C@@H](NC(=O)[C@@H](CC(C)C)NC(C)=O)C(=O)N[C@H](CCCNC(=N)N)C(=O)N[C@H](CO)C(=O)N[C@H](CCC(N)=O)C(=O)N[C@H](CCCNC(=N)N)C(=O)N[C@H](CC(C)C)C(=O)N[C@H](CCCNC(=N)N)C(=O)N[C@H](CCC(N)=O)C(=O)NCC(=O)N[C@H](CC(C)C)C(=O)N[C@H](CCCNC(=N)N)C(=O)N[C@H](CCCCN)C(=O)N[C@H](CCCNC(=N)N)C(=O)N[C@H](CCCNC(=N)N)C(=O)N[C@H](CCCNC(=N)N)C(=O)N[C@H](CCCNC(=N)N)C(=O)N[C@H](CCCNC(=N)N)C(=O)N[C@H](CCCNC(=N)N)C(=O)N[C@H](CCCNC(=N)N)C(N)=O [Compound 2, Ac-lmrsqrlrqGlrkrrrrrrr-NH2]
IC50 (SSP-25 cells): 4220 µM
% Hemolysis (250 uM) (fresh human RBCs): 1%
effect on growth / cell death of A549 cells (A549 cells [1]): rapid cell death (decrease in cell index)
cell morphology / cell death in primary fibroblasts (primary fibroblasts): little cell death is generated in the primary fibroblast cells compared to the SSP25 cells
cell death with added calcium chelator BAPTA-AM (SSP25 cells; 10 μM compound + 10 μM BAPTA-AM): able to counteract the cell-death inducing effects
cell death with added calcium chelator ruthenium red (SSP25 cells; 10 μM compound + 40 μM Ruthenium red): able to counteract the cell-death inducing effects
intracellular calcium (Fluo-2 dye) (A549 cells [2]): shows accumulation in response to treatment

AUC Extr ([3]; 1 mg/kg IV): 19.8%
Vss ([3]; 15 mg/kg IP): 1.19 L/kg
AUC(0-inf) ([3]; in vivo, 1 mg/kg IV): 79.3 ng·h/mL
AUC(0-t) ([3]; in vivo, 1 mg/kg IV): 63.9 ng·h/mL
C0 ([3]; in vivo, 1 mg/kg IV): 514 ng/mL
MRT inf ([3]; in vivo, 1 mg/kg IV): 0.158 h
clearance ([3]; in vivo, 1 mg/kg IV): 222 mL/min/kg
AUC(0-inf) ([3]; in vivo, 15 mg/kg IP): 463 ng·h/mL
MRT inf ([3]; in vivo, 15 mg/kg IP): 48.3 h
half-life ([3]; in vivo, ip, 15 mg/kg, 15 mg/kg IP, read-out: t½ (converted)): 36.3 min
half-life ([3]; in vivo, ip, 15 mg/kg, IP (15 mg/kg), read-out: Half-life Mouse IP): 36.3 min
Vd ([3]; in vivo, iv, 1 mg/kg, 1 mg/kg IV, read-out: Vss): 1.87 L/kg
Vd ([3]; in vivo, iv, 1 mg/kg, 1 mg/kg IV, read-out: Vz): 2.04 L/kg
half-life ([3]; in vivo, iv, 1 mg/kg, 1 mg/kg IV, read-out: t½ (converted)): 7.14 min
half-life ([3]; in vivo, iv, 1 mg/kg, IV (1 mg/kg), read-out: Half-life Mouse IV): 7.16 min
half-life (in vitro [4]): > 500 min
half-life (in vitro [5]): 365 min
half-life (in vitro [6]): > 500 min
SMILES: CCCC[C@@H](NC(=O)[C@@H](CC(C)C)NC(C)=O)C(=O)N[C@H](CCCNC(=N)N)C(=O)NCCC(=O)N[C@@H](C(=O)N[C@H](CCCNC(=N)N)C(=O)N[C@H](CC(C)C)C(=O)N[C@H](CCCNC(=N)N)C(=O)N[C@@H](C(=O)NCCC(=O)N[C@H](CC(C)C)C(=O)N[C@H](CCCNC(=N)N)C(=O)N[C@H](CCCCN)C(=O)N[C@H](CCCNC(=N)N)C(=O)N[C@H](CCCNC(=N)N)C(=O)N[C@H](CCCNC(=N)N)C(=O)N[C@H](CCCNC(=N)N)C(=O)N[C@H](CCCNC(=N)N)C(=O)NCC(=O)N[C@@H](Cc1ccc2ccccc2c1)C(N)=O)C(C)C)C(C)C [Compound 22, Ac-l{d-norLeucine}r[beta-ALA]vrlrv[beta-ALA]lrkrrrrrGΦ-NH2] (Ac-[dL][dNle][dR][βAla][dV][dR][dL][dR][dV][βAla][dL][dR][dK][dR][dR][dR][dR][dR]G[2Nal]-NH2)
IC50 (SSP-25 cells): 18 µM
% Hemolysis (250 uM) (fresh human RBCs): 5%
tumor growth (A549 xenograft): effective to reduce tumor growth
